In US8748598B2, “Analogs of 3-O-acetyl-11-keto-beta-boswellic acid” (Laila Nutraceuticals, priority 2004, dated 2014):
Values after ≈ are worked out from the molar mass of the structure shown. Values joined by “and” are separate entries in the source; they are usually repeats but may differ in a detail not shown here. Equal values may be shown once. Read-outs that look alike come from different tables or passages of the source.

How the values were obtained:
MDA-MB-231 [1] = experiment: MDA-MB-231 clone (colony) formation in vitro; format: cell-based, human; settings: 25 μg/ml, 8 days
Procedure: Inhibitory efficacy in clone formation of LI-51255 was tested by following the procedure described earlier with some modifications (Wu et al. 2005). Briefly, MDA-MB-231 cells were harvested and seeded into 6-well plates (100 cells/ml). The cells were allowed to grow for 4 days and thereafter, the cells were incubated with DMEM containing either 0.5% DMSO or 25 μg/ml AKBA or different concentrations (1.0, 1.5, 2.0, 2.5 μg/ml) of LI-51255 for further 8 days. Fresh medium containing test agents was replaced at every 24 h. Finally, the wells were washed three times with PBS and fixed in methanol for 15 min. The cells were stained with Giemsa stain and observed under microscope. The image of the stained wells were captured digitally (Kodak Image Station 4000MM, Carestream Health Inc., New Haven, Conn.) and number of colonies were counted and analyzed by using NIH Image J software.

[2] = system: Freund's Adjuvant-induced arthritis in Wistar Albino rats; experiment: Freund's adjuvant-induced arthritis, paw edema; format: in vivo; settings: 10 mg/kg daily oral for 30 days; edema 13 days after Freund's Adjuvant
Procedure: The Wistar Albino rats were divided into four groups with […] each group. The two treatment groups, each containing 6 animals, were orally supplemented with one of the two analogs namely glycinate of AKBA (10) or piperazine amide of AKBA (23) in 1% carbomethylcellulose (CMC) at a daily dose of 10 mg/kg for 30 days. The control group of animals received same volume of 1% CMC orally and a positive control group received 10 mg/kg daily dose of prednisolone for direct comparison. Following the 30 day treatment and one hour after the last dose all the animals were challenged with 0.1 mL of 1% solution of Freund's Adjuvant through a subcutaneous injection in the sub-plantar region of left hind paw. The paw volume was measured using a plethymograph. The difference between the paw volumes measured before and 13 days after the Freund's Adjuvant injection was taken as edema volume. The percentage inhibition was calculated by comparing the mean edema of the control group and treatment groups.

MDA-MB-231 [3] = experiment: MTT cell proliferation assay, MDA-MB-231; format: cell-based, human; settings: for IC50: Homo sapiens, MDA-MB-231; for Inhibition of cell proliferation MDA-MB-231 (IC50): Table 2, three days
Procedure: (§1) MTT [3-(4,5-dimethylthiazol-2-yl)-2,5-diphenyltetrazolium bromide] incorporation based cell proliferation assay was performed as described previously (Reference). The cytotoxic efficacy of some analogs was evaluated in different cell lines by MTT cell proliferation assay kit (Roche Applied Sciences, Germany). The assay was carried out according to the instruction provided by the vendor. Briefly, in brief, equal numbers of cells was plated in 96-well flat-bottomed plates in 100 μl of medium and were exposed to different analogs selected from 1 to 63 at various concentrations up to 10 μg/ml for a period of three days. Vehicle control culture wells received only a maximum of 0.5% DMSO. Thereafter, 0.5 mg/ml of MTT reagent was added to each well and the microplate was incubated further for 4 h at 37° C. in presence of 5% CO2. Finally, the cells were solubilized by adding solubilizing solution and allowed to incubate at 37° C. overnight. After complete solubilization of the formazan crystals the absorbance was read at 540 nm in a microplate reader (BioRad, USA). The results (mean OD±SD) obtained from quadruplicate wells were used in calculation to determine the inhibition of cell proliferation (50% of inhibitory concentration, IC50) of the test compounds.
(§2) The cytotoxic properties of some analogs were evaluated by MTT incorporation assay. The methodology of the assay procedure was the same as mentioned in example 41.

MCF-7 = experiment: MTT cell proliferation assay, MCF-7; format: cell-based, human; settings: for IC50: Homo sapiens, MCF7; for IC50 / IC50 values MCF-7: Table 4; for Inhibition of cell proliferation MCF-7 (IC50): Table 2, three days
Procedure: as §1, §2

Jurkat = format: cell-based, human; parameters: minimum inhibitory concentration (MIC) Jurkat: unit not given here; settings: MTT assay
Procedure: as §1, §2

PC3M = experiment: Cytotoxicity MTT assay, PC3M; format: cell-based, human; parameters: minimum inhibitory concentration (MIC) PC3M: unit not given here; settings: for minimum inhibitory concentration (MIC) PC3M: MTT assay
HePG2 = experiment: Cytotoxicity MTT assay, HePG2; format: cell-based, human; parameters: unit not given here
Procedure: as §1, §2

Brine shrimp = Brine shrimp lethality; format: in vivo; settings: for IC50: read-out: Brine shrimp lethality IC50
Procedure: The Brine shrimp lethality was evaluated for the analogs 1 to 28 and compared the activities with those of AKBA and a standard compound podophyllotoxin. The data was summarized already disclosed in our earlier application Ser. No. 10/540,257 which is granted under U.S. Pat. No. 7,625,947 which is incorporated herein by reference. The magnitude of Brine shrimp lethality obtained for the analogs has significant correlation with 5-LOX inhibitory activity.

potato 5-lipoxygenase = experiment: 5-Lipoxygenase enzyme inhibitory activity; format: biochemical
Procedure: 5-Lipoxygenase enzyme inhibitory activity was measured using the method of Schewe et al. (Adv Enzymol, Vol 58, 191-272, 1986), modified by Reddanna et. al., (Methods of Enzymology, Vol 187, 268-277, 1990). The assay mixture contained 80 μM linoleic acid and sufficient amount of potato 5-lipoxygenase in 50 mM phosphate buffer (pH 6.3). The reaction was initiated by the addition of enzyme buffer mix to linoleic acid and the enzyme activity was monitored as the increase in absorbance at 234 nm. The reaction was monitored for 120 sec and the inhibitory potential of the test substances (29, 31, 33, 34, 35, 36, 39, 40, 43, 44, 46, 47, 48, 49, 50, 54, 57, 59, 62 & 63) was measured by incubating various concentrations of test substances two minutes before the addition of linoleic acid. All assays were performed three times. Percentage inhibition was calculated by comparing the slope of the curve obtained for test substances with that of the control.

A549 = experiment: MTT cell proliferation assay, A549; format: cell-based, human; settings: Table 2; three days
Procedure: as §1

A375 = experiment: MTT cell proliferation assay, A375; format: cell-based, human; settings: Table 2; three days
Procedure: as §1

B16 = experiment: MTT cell proliferation assay, B16; format: cell-based, mouse; settings: Table 2; three days
Procedure: as §1

IC50 values MDA-MB-231 (MDA-MB-231 [3]; Table 4) | IC50 values MCF-7 (MCF-7) | % inhibition at 10 μg/ml (potato 5-lipoxygenase) [%] | % inhibition at 25 μg/ml (potato 5-lipoxygenase) [%] | Inhibition of cell proliferation MDA-MB-231 (IC50) (MDA-MB-231 [3]) [µg/mL] | Inhibition of cell proliferation MCF-7 (IC50) (MCF-7) [µg/mL] | Inhibition of cell proliferation A549 (IC50) (A549) [µg/mL] | Inhibition of cell proliferation A375 (IC50) (A375) [µg/mL] | Inhibition of cell proliferation B16 (IC50) (B16) [µg/mL] | Compound | inhibition of paw edema [2] | minimum inhibitory concentration (MIC) Jurkat (Jurkat) | minimum inhibitory concentration (MIC) PC3M (PC3M) | minimum inhibitory concentration (MIC) HePG2 (HePG2) | other results
– | – | – | – | – | – | – | – | – | 3-O-acetyl-11-keto-β-boswellic acid [AKBA, reference compound] | – | – | – | – | MDA-MB-231 colony formation (MDA-MB-231 [1]): inhibition of MDA-MB-231 colony formation
– | – | – | – | – | – | – | – | – | C[C@@H]1CC[C@]2(C)CC[C@]3(C)C(=CC(=O)C4[C@@]5(C)CC[C@@H](OC(=O)CN)[C@](C)(C(=O)O)C5CC[C@]43C)C2[C@H]1C (some centres unmarked) [Analog 10] | 12% | 50 | 50 | >150 | IC50 (MDA-MB-231 [3]; Table 4): 19.5 µg/mL (≈ 36.9 µM); IC50 (MCF-7): 26.9 µg/mL (≈ 51 µM)
– | – | – | – | – | – | – | – | – | CC(=O)O[C@@H]1CC[C@@]2(C)C(CC[C@]3(C)C2C(=O)C=C2C4[C@@H](C)[C@H](C)CC[C@]4(C)CC[C@]23C)[C@@]1(C)N (some centres unmarked) [Analog 25] | – | 50 | 30 | 50 | inhibitory capabilities against brine shrimp (Brine shrimp; in vivo): potent inhibitory capabilities; IC50 (MDA-MB-231 [3]; Table 4): 13.2 µg/mL (≈ 27.3 µM); IC50 (MCF-7): 14 µg/mL (≈ 28.9 µM); cytotoxicity against PC3M (PC3M): significantly more potent
IC50 at 5.14 μg/ml | IC50 at 9.7 μg/ml | 24.92 | 52.48 | 5.14 | 9.7 | 5.86 | 2.76 | 2.82 | CC(=O)O[C@@H]1CC[C@@]2(C)C(CC[C@]3(C)C2C(=O)C=C2C4[C@@H](C)[C@H](C)CC[C@]4(C)CC[C@]23C)[C@@]1(C)C(=O)NCCCCCCCN (some centres unmarked) [Analog 35] | – | – | – | – | –
IC50 at 3.4 μg/ml | IC50 at 8.7 μg/ml | 17.83 | 34.40 | 3.4 | 8.7 | 4.78 | 2.75 | 2.44 | C[C@@H]1CC[C@]2(C)CC[C@]3(C)C(=CC(=O)C4[C@@]5(C)CC[C@@H](O)[C@](C)(C(=O)N6CCOCC6)C5CC[C@]43C)C2[C@H]1C (some centres unmarked) [Analog 36] | – | – | – | – | –
– | – | 22.78 | 54.18 | 4.98 | 12.5 | 6.83 | 3.53 | 4.35 | CC(=O)O[C@@H]1CC[C@@]2(C)C(CC[C@]3(C)C2C(=O)C=C2C4[C@@H](C)[C@H](C)CC[C@]4(C)CC[C@]23C)[C@@]1(C)C(=O)NCCNC=O (some centres unmarked) [Analog 48] | – | – | – | – | Percentage Inhibition of cell proliferation MDA-MB-231 (MDA-MB-231 [3]; Table 4, 10 μg/ml): 8.8% at 10 μg/ml
– | – | – | – | – | – | – | – | – | COc1cc([C@@H]2c3cc4c(cc3[C@H](O)[C@H]3COC(=O)[C@H]23)OCO4)cc(OC)c1OC [podophyllotoxin, reference compound] | – | – | – | – | IC50 (Brine shrimp): 3000 nM
– | – | – | – | – | – | – | – | – | C[C@]12C=CC(=O)C=C1CC[C@@H]1[C@@H]2[C@@H](O)C[C@@]2(C)[C@H]1CC[C@]2(O)C(=O)CO [prednisolone, reference compound] | 16.8% | – | – | – | –

Compound | IC50 values MDA-MB-231 (MDA-MB-231 [3]; Table 4) | IC50 values MCF-7 (MCF-7) | % inhibition at 10 μg/ml (potato 5-lipoxygenase) [%] | % inhibition at 25 μg/ml (potato 5-lipoxygenase) [%] | Inhibition of cell proliferation MDA-MB-231 (IC50) (MDA-MB-231 [3]) [µg/mL] | Inhibition of cell proliferation MCF-7 (IC50) (MCF-7) [µg/mL] | Inhibition of cell proliferation A549 (IC50) (A549) [µg/mL] | Inhibition of cell proliferation A375 (IC50) (A375) [µg/mL] | Inhibition of cell proliferation B16 (IC50) (B16) [µg/mL] | inhibition of paw edema [2] | minimum inhibitory concentration (MIC) Jurkat (Jurkat) | minimum inhibitory concentration (MIC) PC3M (PC3M) | minimum inhibitory concentration (MIC) HePG2 (HePG2) | other results
CC(=O)OC1CCC2(C)C(CCC3(C)C2C(=O)C=C2C4C(C)C(C)CCC4(C)CCC23C)C1(C)C(=O)N1CCNCC1 (centres unmarked) [Analog 23] | IC50 at 5.53 μg/ml | IC50 at 9.03 μg/ml | – | – | – | – | – | – | – | 16.4% and 16.3% | 50 | 10 | 40 | IC50 (Brine shrimp; in vivo): 880 nM; cytotoxicity against PC3M (PC3M): significantly more potent
